Experimental data taken from patent US20150366836A1, “METHOD AND PHARMACEUTICAL COMPOSITION FOR TREATING COLORECTAL CANCER” (National Dong Hua University, priority 2014, published 2015).

Columns and labels:
Caco2 cells [1] = test: MTT assay cell viability, Caco2 cells; type: cell-based
Description: (§1) Two cell lines were used in this study, Caco2 cells and HT-29 cells. Both of them are colorectal cancer cells. Caco2 cells and HT-29 cells were maintained in DMEM (or RPMI) supplemented with 20% or 10% fetal bovine serum (FBS; GIBCO), pH 7.4 at 37° C. with continuous circulation of 5% CO2 incubator. The medium was changed every 2 days and the cells were trypsinized using trypsin/EDTA when reaching 80%-90% confluence.
(§2) In this example, the effects of HCD, PG, and 5-FU on the viability of Caco2 cells and HT-29 cells were examined. The MTT assay was employed for this purpose. The MTT (3-(4-,5-dimethylthiazol-2-yl)-2,5-diphenyltetrazolium bromide) assay is a common colorimetric method in the field for cell viability analysis. MTT (yellow tetrazolium salt) is reduced to a purple formazan by living cells and detection to the purple formazan can be calculated as the cell viability.
(§3) Briefly, cells (Caco2 or HT-29) were seeded in 96-well plate (7×10^3 cell per well) and incubated overnight (37° C., 5% CO2).
(§4) On the other hand, in the pretreatment analysis, cells (Caco2 or HT-29) were seeded in 96-well plate (7×10^3 cell per well) and incubated overnight (37° C., 5% CO2). In according to the treatments listed in the Table 1, Cells were pre-treated by HCD or PG for 6, 12, 24, 36, or 48 hr and then were treated by 5-FU for additional 24 hr.

[2] = tested on: mouse bearing inflammatory bowel disease (IBD), AOM/DSS induced; test: Mouse model bearing IBD (AOM/DSS induced), body weight and H&E staining of intestine; type: in vivo, C57/BL6 mice
Description: The animal experiments were approved by the National Dong-Hwa University Animal Ethics Committee and the experimental protocols were used according to the “Guide for the Care and Use of Laboratory Animals” of National Dong-Hwa University. On day 0, C57/BL6 mice (6-8 weeks old) were weighted and injected (intraperitoneal; i.p.) with 10 mg/kg body weight of azoxymethane (AOM) and then fed with 2% Dextran sodium sulfate solution (DSS solution) via water every day for 7 days. On day 8, the 2% DSS solution was changed to normal water for another 7 days. The cycle of DSS solution and water was repeated and the induction procedure was completed on day 35.
After the establishment of IBD in the experimental mice (on day 35), the mice were injected (i.p.) with 5-FU (15 mg/kg body weight) or HCD (0.64, 1.6, or 6.4 mg/kg body weight) once every three days for additional 30 days. Then, the mice were sacrificed. The colon, spleen, liver, and kidney thereof were immediately removed, observed, and further examined by H&E staining.

HT-29 cells [3] = test: MTT assay cell viability, HT-29 cells; type: cell-based
Description: as §1, §2, §3, §4

Caco2 cells [4] = test: Cell cycle analysis by flow cytometer (PI staining), Caco2 cells; type: cell-based
Description: (§5) The results of Example 2 in cell viability hinted the effects of HCD, PG, and 5-FU on arresting cell cycle. In this example, the phase of cell cycle of Caco2 and HT-29 cells after the treatment listed in Table 1 was determined by flow cytometer. Briefly, 7×10^4 cells per well were inoculated in 12-wells plate and incubated overnight at 37° C., 5% CO2. Then, cells were treated according to the treatment listed in Table 1 by indicated time period. After treatment, cells were harvested by trypsin and fixed with 70% ethanol at −20° C. for at least 3 hr. The cells were washed in cold PBS twice and then incubated with 1 mL (v/v) staining solution (20 μg/mL propidium iodide (PI), 0.1% Triton X-100, 0.2 mg/mL Rnase) at 37° C. for 30 minutes. Lastly, cells were analyzed by flow cytometer (Cytomics™ FC500, Backman, Fullerton, Calif., USA). Data from 10,000 cells were collected for each experimental group.

HT-29 cells [5] = test: Cell cycle analysis by flow cytometer (PI staining), HT-29 cells; type: cell-based
Description: as §5

## CC1=CCCC2C1(C)CCC(C)C2(C)CCC1=CC(=O)OC1O (stereo not drawn) [HCD, 16-hydroxy-cleroda-3,13-dine-15,16-olide]
Caco2 cells [1]; Caco2, pre-treatment 6-48 hr, then 5-FU 2 μM 24 hr
  effect of pre-treating on efficacy of 5-FU in the subsequent treatment (MTT): significantly enhanced the efficacy of 5-FU
Caco2 cells [1]; Caco2 cells, 48 hr treatment
  IC50: 5 µM
[2]; 0.64 mg/kg body weight i.p.
  intestine villus arrangement (H&E staining): irregular arrangement of villus
  lymph node (H&E staining): not infiltrated into muscle mucosa layer
[2]; 0.64 mg/kg body weight i.p. once every three days, 30 days
  body weight: initially reduced
[2]; 1.6 mg/kg body weight i.p.
  intestine villus arrangement (H&E staining): arranged in neat rows nearly as seen in the control mice
  lymph node (H&E staining): not infiltrated into muscle mucosa layer
[2]; 6.4 mg/kg body weight i.p.
  intestine villus arrangement (H&E staining): arranged in neat rows nearly as seen in the control mice
  lymph node (H&E staining): not infiltrated into muscle mucosa layer
HT-29 cells [3]; HT-29, pre-treatment 6-48 hr, then 5-FU 2 μM 24 hr
  effect of pre-treating on efficacy of 5-FU in the subsequent treatment (MTT): significantly enhanced the efficacy of 5-FU
HT-29 cells [3]; HT-29 cells, 36 hr treatment
  IC50: 5 µM
Caco2 cells [4]; Caco2
  cell cycle arrest at sub-G1 phase vs control (in words): increased cell cycle arrest at sub-G1 phase
Caco2 cells [4]; Caco2, 0.5 μM, 36 hr
  G0/G1 (%): 43.8 ± 3.81%
  G2/M (%): 20.37 ± 4.24%
  S (%): 17.3 ± 0.44%
  Sub G1 (%): 14.4 ± 1.73%
Caco2 cells [4]; Caco2, 0.5 μM, 48 hr
  G0/G1 (%): 44.13 ± 3.26%
  G2/M (%): 21.2 ± 2.46%
  S (%): 15.93 ± 0.9%
  Sub G1 (%): 14.47 ± 5.05%
Caco2 cells [4]; Caco2, 2 μM, 36 hr
  G0/G1 (%): 29.73 ± 4.22 %
  G2/M (%): 23.73 ± 3.91%
  S (%): 13.03 ± 0.5%
  Sub G1 (%): 28.8 ± 4.2 %
Caco2 cells [4]; Caco2, 2 μM, 48 hr
  G0/G1 (%): 25.73 ± 4.63%
  G2/M (%): 22.03 ± 2.11%
  S (%): 11.63 ± 1.08%
  Sub G1 (%): 36.17 ± 7.48 %
Caco2 cells [4]; Caco2, 5 μM, 36 hr
  G0/G1 (%): 19.4 ± 1.82 %
  G2/M (%): 14.77 ± 0.8%
  S (%): 9.9 ± 0.98 %
  Sub G1 (%): 51.77 ± 1.65 %
Caco2 cells [4]; Caco2, 5 μM, 48 hr
  G0/G1 (%): 15.67 ± 6.25 %
  G2/M (%): 12.9 ± 0.87%
  S (%): 9.87 ± 0.55%
  Sub G1 (%): 54.2 ± 0.62 %
Caco2 cells [4]; Caco2, 12 and 24 hr pretreatment of 1 or 2 μM, then 5-FU
  G2/M phase after pre-treatment then 5-FU (in words): decreased
HT-29 cells [5]; HT-29
  cell cycle arrest at sub-G1 phase vs control (in words): increased cell cycle arrest at sub-G1 phase
HT-29 cells [5]; HT-29, 0.5 μM, 24 hr
  G0/G1 (%): 82.9 ± 0.849 %
  G2/M (%): 8.2 ± 0 %
  S (%): 3.3 ± 0.424 %
  Sub G1 (%): 4.35 ± 0.495%
HT-29 cells [5]; HT-29, 0.5 μM, 36 hr
  G0/G1 (%): 59.25 ± 0.54%
  G2/M (%): 14.25 ± 1.01 %
  S (%): 15.85 ± 1.68%
  Sub G1 (%): 7.7 ± 0.81%
HT-29 cells [5]; HT-29, 2 μM, 24 hr
  G0/G1 (%): 33.9 ± 1.414 %
  G2/M (%): 22 ± 1.414%
  S (%): 17.95 ± 0.212%
  Sub G1 (%): 20.7 ± 0.707 %
HT-29 cells [5]; HT-29, 2 μM, 36 hr
  G0/G1 (%): 35.95 ± 1.34 %
  G2/M (%): 9.05 ± 1.485 %
  S (%): 7.8 ± 0.14 %
  Sub G1 (%): 43.95 ± 3.89 %
HT-29 cells [5]; HT-29, 5 μM, 24 hr
  G0/G1 (%): 27.5 ± 4.808%
  G2/M (%): 23.5 ± 2.97%
  S (%): 15.1 ± 2.546%
  Sub G1 (%): 22.95 ± 7.99 %
HT-29 cells [5]; HT-29, 5 μM, 36 hr
  G0/G1 (%): 16.4 ± 4.95 %
  G2/M (%): 11.15 ± 1.20 %
  S (%): 7.5 ± 1.13 %
  Sub G1 (%): 62 ± 6.93 %
HT-29 cells [5]; HT-29, pre-treatment, then 5-FU
  cell cycle phases after pre-treatment then 5-FU (in words): increase of sub G1 phase and decrease of G2/M phase
